The text below walks through data of ChEMBL document CHEMBL1201862, “PubChem BioAssay data set” (2004).

Common to all, as to type: functional
The target in one experiment is T1, Hexokinase HKDC1 (Homo sapiens, UniProt Q2TB90).
T1 sequence (Q2TB90 whole entry): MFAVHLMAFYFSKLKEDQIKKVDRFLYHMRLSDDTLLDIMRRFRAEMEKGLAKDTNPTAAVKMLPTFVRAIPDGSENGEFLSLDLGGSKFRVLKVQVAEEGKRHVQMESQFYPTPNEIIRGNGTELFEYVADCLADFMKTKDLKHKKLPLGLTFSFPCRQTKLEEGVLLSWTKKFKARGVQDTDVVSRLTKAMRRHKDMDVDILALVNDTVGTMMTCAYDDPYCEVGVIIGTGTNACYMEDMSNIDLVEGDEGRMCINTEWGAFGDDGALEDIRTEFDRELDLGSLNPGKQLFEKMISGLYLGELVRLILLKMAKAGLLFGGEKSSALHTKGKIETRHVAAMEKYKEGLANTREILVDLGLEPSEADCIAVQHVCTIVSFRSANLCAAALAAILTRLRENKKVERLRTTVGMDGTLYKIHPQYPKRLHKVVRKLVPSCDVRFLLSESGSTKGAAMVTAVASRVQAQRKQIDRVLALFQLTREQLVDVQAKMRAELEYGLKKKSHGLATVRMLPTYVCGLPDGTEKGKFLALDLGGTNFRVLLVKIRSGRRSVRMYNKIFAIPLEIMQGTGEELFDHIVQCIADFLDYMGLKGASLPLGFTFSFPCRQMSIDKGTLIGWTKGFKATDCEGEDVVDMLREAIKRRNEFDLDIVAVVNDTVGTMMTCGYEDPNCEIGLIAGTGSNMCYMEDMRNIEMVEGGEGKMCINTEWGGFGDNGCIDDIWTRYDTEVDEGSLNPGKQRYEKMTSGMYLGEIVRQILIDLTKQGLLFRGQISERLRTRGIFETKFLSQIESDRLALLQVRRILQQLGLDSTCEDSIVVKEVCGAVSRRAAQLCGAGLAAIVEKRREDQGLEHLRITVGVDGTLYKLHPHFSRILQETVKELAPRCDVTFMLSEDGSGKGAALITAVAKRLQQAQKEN
In words: inhibition of HKDC1 glucose phosphorylation – biochemical, W721R variant, dose response (AID 504729).

In experiment [1] the target is T2, Tyrosine-protein phosphatase non-receptor type 22 (Homo sapiens, UniProt Q9Y2R2).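 Note: confirmatory dose-response retest of primary uHTS hits for inhibition of LYP phosphatase, measured by a fluorescence intensity read-out.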
T2 sequence (Q9Y2R2 whole entry): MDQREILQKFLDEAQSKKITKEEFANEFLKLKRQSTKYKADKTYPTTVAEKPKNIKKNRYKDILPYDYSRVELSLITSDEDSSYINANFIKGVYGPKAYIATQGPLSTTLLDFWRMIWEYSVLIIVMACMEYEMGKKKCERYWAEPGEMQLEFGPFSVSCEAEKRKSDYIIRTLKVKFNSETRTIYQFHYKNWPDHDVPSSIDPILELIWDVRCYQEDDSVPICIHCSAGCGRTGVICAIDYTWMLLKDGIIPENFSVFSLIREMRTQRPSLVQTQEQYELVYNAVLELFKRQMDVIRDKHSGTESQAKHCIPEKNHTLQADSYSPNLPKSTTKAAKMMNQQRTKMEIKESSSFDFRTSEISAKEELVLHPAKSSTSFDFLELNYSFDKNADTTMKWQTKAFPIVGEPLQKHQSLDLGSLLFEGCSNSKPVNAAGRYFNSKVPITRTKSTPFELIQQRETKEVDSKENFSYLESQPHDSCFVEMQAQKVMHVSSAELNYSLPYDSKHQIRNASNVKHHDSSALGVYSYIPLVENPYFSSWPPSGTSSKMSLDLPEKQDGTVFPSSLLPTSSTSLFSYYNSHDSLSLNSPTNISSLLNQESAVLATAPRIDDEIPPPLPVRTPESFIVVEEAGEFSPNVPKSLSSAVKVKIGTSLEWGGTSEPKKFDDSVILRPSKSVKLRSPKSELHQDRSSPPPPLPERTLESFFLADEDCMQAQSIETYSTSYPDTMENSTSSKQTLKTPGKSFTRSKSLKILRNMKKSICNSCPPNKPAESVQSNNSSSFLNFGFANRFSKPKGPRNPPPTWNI

Experiment [2] deals with T3, Tyrosine-protein phosphatase non-receptor type 7 (Homo sapiens, UniProt P35236).
T3 sequence (P35236 whole entry): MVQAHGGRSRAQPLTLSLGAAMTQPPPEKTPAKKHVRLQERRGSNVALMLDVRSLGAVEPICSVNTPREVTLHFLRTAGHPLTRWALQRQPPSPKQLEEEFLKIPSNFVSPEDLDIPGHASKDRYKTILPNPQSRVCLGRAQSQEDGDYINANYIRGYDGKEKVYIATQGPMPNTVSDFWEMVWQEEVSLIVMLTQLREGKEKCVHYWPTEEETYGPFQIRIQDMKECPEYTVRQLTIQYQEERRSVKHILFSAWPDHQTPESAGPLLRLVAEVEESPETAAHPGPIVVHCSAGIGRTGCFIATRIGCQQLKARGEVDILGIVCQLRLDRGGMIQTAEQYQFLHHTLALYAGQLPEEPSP

The next experiment concerns the target Genome polyprotein (dengue virus type 2, UniProt P29990). In words: flavivirus cap methylation enzyme inhibition – biochemical, confirmation dose response, primary screen (AID 588689).
Experiment [3] concerns the target T4, RNA-editing ligase 1, mitochondrial (Trypanosoma brucei brucei, UniProt P86926).
T4 sequence (P86926 whole entry): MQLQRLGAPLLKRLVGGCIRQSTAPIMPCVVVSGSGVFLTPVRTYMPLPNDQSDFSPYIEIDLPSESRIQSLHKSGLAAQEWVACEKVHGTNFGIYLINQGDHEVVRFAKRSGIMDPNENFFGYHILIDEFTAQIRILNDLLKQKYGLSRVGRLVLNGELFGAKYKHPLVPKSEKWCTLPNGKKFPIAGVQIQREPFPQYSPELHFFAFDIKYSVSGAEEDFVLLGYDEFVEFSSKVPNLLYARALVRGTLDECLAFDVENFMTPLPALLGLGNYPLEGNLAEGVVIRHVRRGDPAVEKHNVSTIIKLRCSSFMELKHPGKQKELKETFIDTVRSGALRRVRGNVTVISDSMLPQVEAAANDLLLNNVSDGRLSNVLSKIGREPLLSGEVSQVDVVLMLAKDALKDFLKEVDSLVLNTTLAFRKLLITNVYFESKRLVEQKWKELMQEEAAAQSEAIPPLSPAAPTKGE
Briefly: inhibition of trypanosome RNA editing ligase – biochemical, fluorescence, Trypanosoma brucei, dose response (AID 1117295).

Experiment [4] concerns the target T5, Small ubiquitin-related modifier 2 (Homo sapiens, UniProt P61956). In words: disruption of SUMO2 interaction with SIM peptide – biochemical, fluorescence polarization, uHTS hits, selectivity assay for SUMO1 interaction inhibitor project, dose response (AID 624385). To be noted: read-out: IC50_Mean.
For experiment [5], the target named is T5, Small ubiquitin-related modifier 2. Briefly: SUMO2 binding disruption by SUMO1 hits – biochemical, FRET, human SUMO2, uHTS hits, selectivity assay for SUMO1 interaction inhibitor project, dose response (AID 624384). To be noted: read-out: IC50_Mean.
Experiment [6] addresses Small ubiquitin-related modifier 1 (Homo sapiens, UniProt P63165). In words: SUMO1 protein-protein binding blockers, potency – biochemical, FRET, dose response (AID 624383). To be noted: read-out: IC50_Mean.

Active and inactive are the calls of the source.

T5 sequence (P61956 whole entry): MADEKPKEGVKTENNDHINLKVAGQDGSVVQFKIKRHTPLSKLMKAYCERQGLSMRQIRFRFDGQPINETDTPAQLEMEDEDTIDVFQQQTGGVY
Chain of Small ubiquitin-related modifier 1 (P63165 whole entry): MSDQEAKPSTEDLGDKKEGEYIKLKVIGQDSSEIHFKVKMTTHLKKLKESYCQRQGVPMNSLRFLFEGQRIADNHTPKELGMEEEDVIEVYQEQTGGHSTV
Chain of Genome polyprotein (P29990 2492-3391 limits assumed): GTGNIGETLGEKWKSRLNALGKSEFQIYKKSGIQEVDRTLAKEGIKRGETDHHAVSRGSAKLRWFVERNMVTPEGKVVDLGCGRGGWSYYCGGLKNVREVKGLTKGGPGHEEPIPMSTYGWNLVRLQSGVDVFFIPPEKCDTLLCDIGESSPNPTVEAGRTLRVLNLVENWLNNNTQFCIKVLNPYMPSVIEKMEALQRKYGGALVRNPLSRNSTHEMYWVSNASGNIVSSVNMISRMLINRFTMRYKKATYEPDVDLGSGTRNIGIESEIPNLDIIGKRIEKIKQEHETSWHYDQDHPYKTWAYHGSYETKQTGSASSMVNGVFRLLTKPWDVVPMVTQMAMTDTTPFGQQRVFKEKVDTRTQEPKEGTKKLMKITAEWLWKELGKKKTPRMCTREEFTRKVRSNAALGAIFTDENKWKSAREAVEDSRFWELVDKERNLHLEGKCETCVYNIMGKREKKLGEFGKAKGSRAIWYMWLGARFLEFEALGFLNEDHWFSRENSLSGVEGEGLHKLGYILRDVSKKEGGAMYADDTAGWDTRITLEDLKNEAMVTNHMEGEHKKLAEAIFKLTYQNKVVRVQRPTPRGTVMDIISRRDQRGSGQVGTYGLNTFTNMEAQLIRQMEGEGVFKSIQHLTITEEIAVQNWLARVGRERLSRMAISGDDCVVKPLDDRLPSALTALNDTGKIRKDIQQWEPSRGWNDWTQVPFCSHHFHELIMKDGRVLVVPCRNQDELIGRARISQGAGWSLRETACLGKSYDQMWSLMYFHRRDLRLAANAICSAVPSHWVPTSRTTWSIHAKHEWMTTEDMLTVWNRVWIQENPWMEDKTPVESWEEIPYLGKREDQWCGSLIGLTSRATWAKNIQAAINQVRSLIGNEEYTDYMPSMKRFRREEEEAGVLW

Turning to `O=C(O)COc1ccc(/C=N/NC(=O)c2ccc(-c3csc(Nc4ccc(Cl)cc4)n3)cc2)cc1`, the IC50 at Hexokinase HKDC1 is 33 µM (inactive); in experiment [1], < 1.24 µM (active); in experiment [2] it was < 1.24 µM (active).
Regarding `CC(/C=C1\SC(=S)N(NS(=O)(=O)c2ccccc2)C1=O)=C\c1ccccc1`, on Genome polyprotein, the IC50 was 29.3 µM (active).
Consider `Cc1oc2c(c1C(=O)c1ccccc1)C(=O)C(=O)c1ccccc1-2`, for which the IC50 at Genome polyprotein is 48.4 µM (active); in experiment [3] it was 10.3 µM (inactive); on Hexokinase HKDC1 it was 14.5 µM (active).
For `CSc1ccc(C=NNc2ccc(S(=O)(=O)Nc3ccccc3C(=O)O)cc2[N+](=O)[O-])cc1`, the IC50 in experiment [4] is 2.38 µM (active); in experiment [5], 53.1 µM (inactive); in experiment [6] it was 50.8 µM (inactive).
In the case of `Nc1ccc2nc3c(O)nc(S)nc3nc2c1`, the IC50 in experiment [3] was 2.76 µM (active); in experiment [4], 55.2 µM (inactive); in experiment [5] it was 0.584 µM (active); in experiment [6], 17.5 µM (active); in experiment [1], > 79.4 µM (inactive); in experiment [2], > 79.4 µM (inactive).
